Experimental data: patent US11220548B2, “Treatment of C1013G/CXCR4-associated Waldenstrom's macroglobulinemia with an anti-CXCR4 antibody” (BRISTOL-MYERS SQUIBB COMPANY, priority 2013, dated 2022)

Tests used:
[1] = tested on: C1013G/CXCR4-infected BCWM.1 cells; experiment: Adhesion of C1013G/CXCR4-infected cells to primary WM BM-MSCs; assay type: cell-based, human; conditions: in the context of the BM microenvironment
Experimental: FIGS. 21A-21D: FIGS. 21A-21D show BMS-936564 targets C1013G/CXCR4-mutated cells in WM cells in the context of BM. C1013G/CXCR4-infected BCWM.1 cells were tested for their migratory properties using a transwell migration assay. Cells were exposed to increasing concentrations of BMS-936564 and migration was determined after 5 h. The transwell migration assay was performed in presence of either primary WM BM-MSCs (FIG. 21A) or SDF-1α (FIG. 21B). In both cases, BMS-936564-dependent inhibition of WM cell migration was observed. C1013G/CXCR4-infected BCWM.1 cells were treated with BMS-936564/for 4 h and subsequently tested for adhesion to primary WM BM-MSCs. […] C1013G/CXCR4-infected BCWM.1 cells were cultured with control media and with BMS-936564 for 48 h in the presence or absence of primary WM BM-MSCs. Cell proliferation was assessed using [^3H]-thymidine uptake assay (FIG. 21D). Bars indicate standard deviations. P indicates P value. All data represent mean (±sd) of triplicate experiments. […].

[2] = tested on: C1013G/CXCR4 variant-harboring BCWM.1 cells; experiment: In vivo dissemination of C1013G/CXCR4-mutated WM cells (immunohistochemistry for human CD20 and CXCR4); design: species or system SCID/Bg mice; conditions: 10 mg/kg intraperitoneally, 3-4 times per week for 3 weeks
Experimental: FIGS. 20A-20E: FIGS. 20A-20E show representative histochemical images of the effect of BMS-936564 on C1013G/CXCR4-mutated cells in WM cells in vivo. SCID/Bg mice were injected intravenously with either C1013G/CXCR4 variant-harboring BCWM.1 cells or empty/control vector-infected cells (control cells). Mice were treated with either BMS-936564 or control antibody (10 mg/kg, intraperitoneally; ×3/4/week; mice: 5/group). After 3 weeks mice were euthanized and organs harvested. Hematoxylin-eosin immunohistochemical staining for human CD20 and CXCR4 were performed on femur BM (FIG. 20A), liver (FIG. 20B), kidney (FIG. 20C), lung (FIG. 20D), and lymph nodes (FIG. 20E) (Nikon, Melville, N.Y.; 4×, 10× or 20× magnifications are shown).
Murine tissues (BM, liver, kidney, lung and lymph nodes) were analyzed and quantified for the expression of human CD20 and human CXCR4. These tissues were fixed in formalin 10%, ethanol 70% was used as storage solution; and embedded in paraffin. Paraffin sections were incubated with anti-human-CXCR4 (Abcam, Cambridge, Mass.), and anti-human-CD20 (Dako, Carpinteria, Calif.) monoclonal antibodies, using the Leica Bond III automated staining platform (Leica Biosystems, Buffalo Grove, Ill.). […] Quantification of CD20 and CXCR4 staining was performed using NIS Elements software (Nikon, Melville, N.Y.). […]

[3] = tested on: WM cell lines (BCWM.1; MWCL.1); experiment: Transwell migration assay of WM cell lines; assay type: cell-based, human; conditions: increasing concentrations, 5 h
Experimental: FIGS. 14A and 14B: FIGS. 14A and 14B show the effect of BMS-936564 on migration of WM cells in vitro. WM cell lines (BCWM.1; MWCL.1) were tested for their migratory properties using a transwell migration assay. Cells were exposed to increasing concentrations of BMS-936564 and migration was determined after 5 h. The transwell migration assay was performed in presence of either primary WM BM-MSCs (FIG. 14A) or in presence of SDF-1α (FIG. 14B). In both cases, BMS-936564-dependent inhibition of WM cell migration was observed.

[4] = tested on: WM cell lines (MWCL.1; BCWM.1); experiment: [3H]-thymidine uptake proliferation assay in presence of primary WM BM-MSCs; assay type: cell-based, human; conditions: 48 h
Experimental: FIGS. 15A-15C: FIGS. 15A-15C show the effect of BMS-936564 on adhesion and proliferation of WM cells in vitro. WM cell lines were treated with BMS-936564 for 4 h and subsequently tested for adhesion to primary WM BM-MSCs. […] WM cell lines, MWCL.1 (FIG. 15B) and BCWN.1 (FIG. 15C) were cultured with control media and with BMS-936564 for 48 h in the presence or absence of primary WM BMMSCs. Cell proliferation was assessed using a [^3H]-thymidine uptake assay. Bars indicate standard deviations. P indicates P value. All data represent mean (±sd) of triplicate experiments. The CXCR4 antagonist, […] (Sigma-Aldrich, St. Louis, Mo.), was used as control.

[5] = tested on: C1013G/CXCR4-mutated cells; experiment: Western blot of survival and apoptosis-related proteins in C1013G/CXCR4-WM cells; assay type: cell-based, human
Experimental: FIGS. 22A-22C: FIGS. 22A-22C show the effect of BMS-936564 on survival and apoptosis-related signal proteins in C1013G/CXCR4-WM cells. C1013G/CXCR4-mutated cells were cultured in presence or absence of BMS-936564 for 6 h, showing inhibition of phospho(p)-ERK, ERK, p-Akt, Akt, p-Src (FIG. 22A). Similarly, cells were exposed to the compound for 14 h, and induction of apoptosis-related pathways was observed (p-GSK3β, and p-β-catenin (FIG. 22B), and PARP and Caspase-9 (FIG. 22C)).
Protein lysates were obtained from WM cells by homogenization under nondenaturing conditions in lysis buffer (Cell Signaling Technology, Beverly, Mass.) supplemented with 5 mM NaF, 2 mM Na3VO4, 1 mM PMSF ([…]), 5 μg/mL leupeptine, and 5 μg/mL aprotinin. Whole-cell lysates were subjected to sodium dodecyl sulfate-polyacrylamide gel electrophoresis (SDS-PAGE) and transferred to polyvinylidene difluoride (PVDF) membrane (Bio-Rad Laboratories, Hercules, Calif.). The antibodies used for immunoblotting included: anti-phospho(p)-ERK, anti-ERK, anti-p-Akt, anti-Akt, anti-p-Src, anti-Src, anti-caspase-9, anti-PARP, anti-p-β-catenin, anti-β-catenin, anti-p-GSK3, anti-GAPDH and anti-α-tubulin antibodies (Cell Signaling, Danvers, Mass.).

BMS-936564: fully human anti-CXCR4 monoclonal antibody; VH SEQ ID NO: 25, VL SEQ ID NO: 29
targeting adhesion of CXCR4-mutated cells [1]: equally active
involvement of lymph nodes [2]: absent
CXCR4+/CD20+ cell infiltration in femur, liver, kidney and lung ([2]; vs control antibody-treated mice): significant reduction
migration of WM cell lines towards SDF-1 [3]: inhibit migration
migration of WM cell lines towards primary WM BM-MSCs [3]: inhibit migration
WM cell proliferation in presence of WM BM-MSCs [4]: inhibition
p-ERK, p-Akt, and p-Src in WM cells harboring the C1013G/CXCR4 mutation ([5]; 6 h): dose-dependent inhibition
GSK3-β/β-catenin signaling in CXCR4-mutated WM cells ([5]; 14 h): up-regulation of p-GSK3-β/p-β-catenin and β-catenin degradation
caspase-9- and PARP-cleavage in CXCR4-mutated WM cells ([5]; 14 h): increased
